Source: patent publication US20090012104A1, “Inhibitors of 5'-Methylthioadenosine Phosphorylase and 5'-Methylthioadenosine/S-Adenosylhomocysteine Nucleosidase” (priority 2004, published 2009)

Molecular target: T1, E. coli MTA/AdoHcy nucleosidase (MTAN) (Escherichia coli, UniProt P0AF12)
T1 construct: hexahistidine; made in house; host or cells: bacterial expression vector
Assay: MTAN direct UV spectrophotometric enzyme assay (cleavage of MTA, absorbance at 275 nm)
Assay type: biochemical
Conditions: initial rates fitted to competitive inhibition; 100-250 μM MTA, 50 mM sodium phosphate pH 7, 0-1 μM inhibitor, 25° C; read-out: Ki (inhibitor constant for the initial rate reactions)
Description: The gene for E. coli MTA/AdoHcy nucleosidase (MTAN) was amplified and cloned into a bacterial hexahistidine plasmid expression vector. Induced recombinant enzyme was purified by Nickel-chelate chromatography, and dialyzed into 100 mM sodium phosphate buffer, pH 7. Enzyme purity was assessed by SDS-PAGE and concentration assigned using the experimentally determined extinction coefficient (ε280=10480 M^−1cm^−1).
MTAN assays were performed in 1 mL quartz cuvettes using a Perkin Elmer Lambda 35 UV/V is spectrometer outfitted with KinLab and UV WinLab software. This direct UV spectrophotometric assay follows the decrease in absorbance at 275 nm that accompanies the cleavage of MTA to MTR and Ade. (2-(4-Amino-5H-pyrrolo[3,2-d]pyrimidin-7-yl)-5-methyl-sulfanylmethyl-pyrrolidine-3,4-diol) and (2-Amino-4-[5-(4-amino-5H-pyrrolo[3,2-d]pyrimidin-7-yl)-3,4 dihydroxy-pyrrolidin-2-ylmethylsulfanyl]-butyric acid) inhibitor concentrations were assigned using UV absorbance and the extinction coefficient of 9-deazaadenine. […] Reactions were initiated by the addition of […] MTAN enzyme to the 1 mL assay mixture, and the change in UV absorbance followed for 20-25 minutes. […] Inhibitor constants for the initial rate reactions (Ki's) were calculated by fitting the results to the equation for competitive inhibition.

T1 sequence (P0AF12 whole entry): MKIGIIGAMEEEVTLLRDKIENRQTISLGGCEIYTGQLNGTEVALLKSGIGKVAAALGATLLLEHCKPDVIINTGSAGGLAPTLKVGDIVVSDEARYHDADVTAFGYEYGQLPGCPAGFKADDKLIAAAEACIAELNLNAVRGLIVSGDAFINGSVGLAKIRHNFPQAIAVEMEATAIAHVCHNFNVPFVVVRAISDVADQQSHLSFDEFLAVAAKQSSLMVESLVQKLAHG

Nc1ncnc2c(C3NC(CSCCC(N)C(=O)O)C(O)C3O)c[nH]c12 (stereo not shown) [2-Amino-4-[5-(4-amino-5H-pyrrolo[3,2-d]pyrimidin-7-yl)-3,4-dihydroxy-pyrrolidin-2-ylmethylsulfanyl]-butyric acid]
Ki: < 0.01 µM
